Test results: PubChem BioAssay AID743417 (Broad Institute, 2014)
Results filed as inconclusive are left out. *1 amine or outer side, *2 acyl side, *3 side chain or, on linkers, in order; H or OH if unused. Where a SMILES comes first, the peptide text is derived from it. Bridges are numbered along the chain shown (N, C = ends). [ ]: non-standard residue; d: D form. ξ: configuration not given here. X1 = CC[C@H](CCC[C@@H](O)[C@@H](C)C(=O)O[C@H](C)[C@@H](C)C/C=C(C)/C(=C\C(=O)[*:1])OC)O[*:2]; NMeξIle = CC[C@H](C)C(NC)C(=O)O; NMeV = CN[C@H](C(=O)O)C(C)C; NMeS = CN[C@@H](CO)C(=O)O

System: Clone20 osteoblast Shn3 3'UTR firefly luciferase, 24 h
Assay: Shn3 3'UTR reporter inhibitors, dose response, cell-based, Clone20 osteoblasts, luminescence, dry powder, set 2 (AID 743417)

Compound | AC50
O=C(Nc1ccc(S(=O)(=O)N2CCCC2)cc1)c1ccc(CN2CCc3ccccc3C2)cc1 | 0.575 µM
CC(=O)OC[C@]12CC[C@H]3[C@@](C)(CC[C@H]4C(C)(C)CCC[C@]34C)[C@@H]1CC(C1=CC(=O)OC1O)O2 (stereo partly drawn) | 0.634 µM
CCc1nc(N)nc(N)c1-c1ccc(N(C)Cc2ccccc2)c([N+](=O)[O-])c1 | < 0.26 µM
COc1ccc(CNCC(O)COc2cccc3c2OC(C)(C)C3)cc1 (stereo not drawn) | 1.68 µM
COc1ccc(CCN2C(=O)CSC2=Nc2ccc(C(C)C)cc2)cc1OC | 4.49 µM
CCC(=O)c1ccc(OCc2ccc(C(=O)c3ccccc3)cc2)cc1 | 3.29 µM
C[C@@H]1C[C@@H]2O[C@H]2/C=C\C=C\C(=O)Cc2c(Cl)c(O)cc(O)c2C(=O)O1 | 6.4 µM
COC(=O)c1ccccc1NC(=O)c1nc(S(=O)(=O)Cc2ccccc2)ncc1Cl | 0.428 µM
COC(=O)c1ccccc1NC(=S)N(Cc1ccc2c(c1)OCO2)Cc1cc2cc(OC)ccc2[nH]c1=O | 10.4 µM
CC(=O)c1ccc(N2CCN(c3ccc(S(=O)(=O)NCCCN(C)C)cc3[N+](=O)[O-])CC2)cc1 | 3.78 µM
O=C1CC(Sc2nnc(-c3ccccc3O)o2)C(=O)N1c1ccccc1 (stereo not drawn) | 12.9 µM
Cc1ccc(-c2nnc(N3CCC(C)CC3)c3ccccc23)cc1C | 6.41 µM
CN(C)c1nc(-c2ccccn2)nnc1-c1ccccc1 | 3.3 µM
COc1ccc(CCN2CCC(Nc3nc4ccccc4n3Cc3ccc(F)cc3)CC2)cc1 | 3.03 µM
O=C(CN(C(=O)c1ccc(Cl)cc1)C1CCCCC1)Nc1ccc(Cl)c([N+](=O)[O-])c1 | 8.11 µM
CC(C)(C)NCC(=Cc1ccccc1)C(=O)c1ccccc1 | 4.51 µM
CCN(CC)S(=O)(=O)c1cc(NC(=O)CNc2cccc(S(=O)(=O)N3CCCC3)c2)ccc1C | 0.648 µM
C=C1CC(COc2cc(=O)oc3ccccc23)(c2ccccc2)OC1=O (stereo not drawn) | 3.93 µM
CC(C)CC(NC(=O)c1ccc(Cl)cc1)C(=O)OCC(=O)c1ccc2c(c1)NC(=O)CO2 (stereo not drawn) | 4.01 µM
CS(=O)(=O)c1nc(-c2ccc(F)cc2)cc(C(F)(F)F)n1 | 2.72 µM
COc1cccc(C(c2nnnn2-c2ccc3c(c2)OCCO3)N2CCC(n3c(=O)[nH]c4ccccc43)CC2)c1OC (stereo not drawn) | 3.74 µM
Clc1ccc(C[n+]2cc(-c3ccccc3)n3c2CCCCC3)c(Cl)c1 | 1.2 µM
COc1ccccc1C(=O)Nc1nc(-c2ccc(S(=O)(=O)N3CCOCC3)cc2)cs1 | 1.21 µM
CC1Cc2cc(S(=O)(=O)N3CCC(C(=O)N4CCN(c5ccccc5F)CC4)CC3)ccc2N1C(=O)C1CC1 (stereo not drawn) | 1.65 µM
CN(C(=O)COc1ccccc1C(=O)NCCOc1ccccc1)c1ccccc1 | 1.57 µM

Compound | AC50
Cc1ccc(CNC(=O)c2cc3c(C)nc4ccccc4c3o2)cc1 | 2.49 µM
CCCCCOc1ccc(Br)cc1CSC(=N)N | 1.47 µM
CC[C@@H]1CCC[C@@H](O)[C@@H](C)C(=O)O[C@H](C)[C@@H](C)C/C=C(C)/C(OC)=C\C(=O)N(C)C([C@@H](C)CC)C(=O)N(C)[C@@H](C(C)C)C(=O)N(C)[C@@H](COC)C(=O)N2CCC[C@H]2C(=O)N(C)[C@@H](C(C)C)C(=O)N2CCC[C@H]2C(=O)O1 (stereo partly drawn) ([NMeξIle][NMeV][NMeS](Me)P[NMeV]P; linker N-C via X1) | < 0.26 µM
Cc1ccc(C(=O)OCn2ncc(Cl)c(Cl)c2=O)cc1 | 5.07 µM
CC(=O)OCCCNc1cc(Sc2ccc(Cl)cc2)c2nonc2c1[N+](=O)[O-] | 1.14 µM
CCOC(=O)c1oc2ccc(S(=O)(=O)n3nc(-c4ccc(OC)cc4)cc3N)cc2c1C | 1.99 µM
Cc1ccc(Cn2ccc(=O)c(OCc3c(Cl)cccc3Cl)c2C)cc1 | 6.11 µM
O=c1cc(-c2ccc(O)cc2)oc2ccc3ccccc3c12 | 5.41 µM
CCN(CC)S(=O)(=O)c1cccc(NC(=O)CNc2cccc(S(=O)(=O)N3CCOCC3)c2)c1 | 0.865 µM
C=CCn1nc([N+](=O)[O-])nc1Sc1cccc2cccnc12 | 10.7 µM
CCC(OC(=O)c1ccc(S(C)(=O)=O)c([N+](=O)[O-])c1)C(=O)NC1C2CC3CC(C2)CC1C3 (stereo not drawn) | 1.66 µM
NS(=O)(=O)c1ccc(CCNCc2cc(Br)ccc2OCc2ccccc2)cc1 | 2.92 µM
CC(C)(C)NC(=O)CSc1nc2ccc(NC(=O)CSc3nnnn3Cc3ccccc3)cc2s1 | 3.26 µM
C=C1C(=O)O[C@@H]2C[C@@H](C)[C@@H]3C=CC(=O)[C@@]3(C)[C@@H](OC(=O)CC(=O)O[C@H]3[C@@H]4C(=C)C(=O)O[C@@H]4C[C@@H](C)[C@@H]4C=CC(=O)[C@]43C)[C@H]12 | 0.292 µM
O=C(Cn1cc(C(=O)c2ccco2)c2ccccc21)Nc1ccccc1F | 2.6 µM
CCCCCn1c(=N)n(CC(O)COc2ccccc2OC)c2ccccc21 (stereo not drawn) | 2.12 µM
Cc1ccc(Nc2nc(NCC3CC3)nc3ccsc23)c(C)c1 | 5.82 µM
COc1ccc(-c2cc3nc(C)n(N)c(=O)c3s2)cc1 | 1.13 µM
COc1cccc(CNc2nc(NCC3CC3)nc3ccsc23)c1OC | 4.48 µM
COc1ccc(-n2nnnc2-c2cnc(N3CCCC3)nc2C(F)(F)F)cc1 | 4.75 µM
Cc1ccc(NS(=O)(=O)c2ccc(C(=O)NC3CCN(Cc4ccccc4)CC3)cc2)cc1 | 4.69 µM
CCN(CC)S(=O)(=O)c1ccc(S(=O)(=O)N2CCCC(C(=O)NC3CC3)C2)cc1 (stereo not drawn) | 2.9 µM
OC(CNCCC1C=Nc2ccccc21)Cn1c2ccc(Cl)cc2c2cc(Cl)ccc21 (stereo not drawn) | 5.11 µM
COc1cc(C2c3cc4c(cc3C(OC3OC5COC(c6cccs6)OC5C(O)C3O)C3COC(=O)C23)OCO4)cc(OC)c1O (stereo not drawn) | 1.11 µM
O=C(NNC(=O)c1cccc(S(=O)(=O)N2CCc3ccccc32)c1)c1ccccc1 | 1.52 µM

Compound | AC50
Cc1cccc(N2CCN(C(=O)CSCc3c(C)noc3C)CC2)c1C | 2.41 µM
CCCC(=O)OCCNc1cc(Sc2nc3ccccc3[nH]2)c2nonc2c1[N+](=O)[O-] | 6.63 µM
O=[N+]([O-])c1ccc(O)c(-c2cc(C(F)(F)F)nc(-c3ccccc3)n2)c1 | 2.73 µM
CCC(C)NS(=O)(=O)c1ccc(S(=O)(=O)N2CCCC3(CCCCC3)C2)cc1 (stereo not drawn) | 3.44 µM
O=C1c2c(O)ccc(O)c2C(=O)c2c(NCCNCCO)ccc(NCCNCCO)c21 | 0.658 µM
CC(C)C[C@@H](CN1CCCC1CN1C(=S)NC[C@@H]1Cc1ccc(O)cc1)N1C[C@H](Cc2ccc(O)cc2)N(CC2CCCCCC2)C1=S (stereo partly drawn) | 18.8 µM
O=C(CSc1nnc(Cn2nnc3ccccc32)o1)N(Cc1ccc(Cl)cc1)c1ccccc1 | 2.29 µM
COc1ccc(-c2coc3c(C(=O)NCc4ccc(OC)c(OC)c4)cccc23)c(C)c1 | 0.722 µM
O=C(c1ccoc1)N1CCN(c2cc(-c3cccc(F)c3)nc3cc(-c4cccc(Cl)c4)nn23)CC1 | 9.78 µM
Cc1ccc2nnn(Cc3cccc(C(C)(C)C)c3O)c2c1 | 5.44 µM
O=C(OCn1ncc(Cl)c(Cl)c1=O)c1ccccc1Cl | 3.56 µM
O=C(NCc1ccc2c(c1)OCO2)c1nc(S(=O)(=O)Cc2ccccc2)ncc1Cl | 6.4 µM
CN(CC(=O)Nc1cccc(S(=O)(=O)N2CCOCC2)c1)CC(=O)Nc1ccc(Cl)c(C(F)(F)F)c1 | 2.4 µM
Nc1nonc1C(=O)NCCNCc1cc(Br)ccc1OCc1ccc(F)cc1 | 3.74 µM
COc1ccccc1CNc1nc(NCC2CC2)nc2ccsc12 | 4.16 µM
CCCC(=O)NC(c1ccccc1Cl)c1ccc2cccnc2c1O (stereo not drawn) | 1.21 µM
CCC(C)c1ccc(S(=O)(=O)N2CCN(C(=O)c3ccc(Cl)c(S(=O)(=O)N4CCOCC4)c3)CC2)cc1 (stereo not drawn) | 5.32 µM
Cc1c(C(C)C)c(=O)n(-c2ccc(S(=O)(=O)NCc3ccccc3)cc2)n1C | 1.18 µM
O=C(Nc1ccc(Cl)cc1)Nc1ccc(N2CCCC2)c(S(=O)(=O)Nc2ccccc2Cl)c1 | 5.2 µM
Nc1nc(Cl)cc(N2CCC(c3cc(-c4ccc(Cl)cc4Cl)n[nH]3)CC2)n1 | 4.94 µM
Cc1c(CCOC(=O)CC23CC4CC(CC(C4)C2)C3)sc[n+]1CC(=O)c1ccc(Br)cc1 | 12.9 µM
NS(=O)(=O)c1ccc(CNC(=S)NC(=O)c2ccco2)cc1 | 22.9 µM
CCOc1cc(/C=C2\CN(CC)C/C(=C\c3ccc(O)c(OCC)c3)C2=O)ccc1O | 2.12 µM
O=C(OCC12CC3CC(CC(C3)C1)C2)c1ccc(NCc2cc(O)ccc2O)cc1 | 3.25 µM
Cc1cc2nc(C)n(CCCNC(=O)Nc3cccc4ccccc34)c2cc1C | 3.19 µM

Compound | AC50
CC(=O)c1cccc(NS(=O)(=O)c2ccc(N/C=C\C(=O)c3ccc(C)cc3)cc2)c1 | 1.51 µM
COc1cc(CN2CCc3ccccc3C2)ccc1O | 0.912 µM
O=C(Nc1nc2ccccc2s1)C1CCN(S(=O)(=O)c2cc([N+](=O)[O-])ccc2Cl)CC1 | 3.07 µM
O=C(Nc1ccccc1)C1=C(c2ccccc2)S(=O)(=O)CCS1(=O)=O | 1.37 µM
Cc1ccc(S(=O)(=O)N2CCN(c3ncnc4ccccc34)CC2)cc1 | 1.56 µM
COc1ccc(C[C@H]2NC[C@H](O)[C@H]2OC(C)=O)cc1 | 0.882 µM
CCN(CC)c1ccc2c(c1)oc(=O)c1c(Cl)cc(=O)oc12 | 2.22 µM
Cc1sc2ncnc(NCC(C)(C)N3CCOCC3)c2c1C | 1.36 µM
Oc1cc(-c2cccnc2)cc2cccnc12 | 9.27 µM
Cc1ccc(NC(=O)CN(C)CC(=O)Nc2cccc(F)c2)cc1[N+](=O)[O-] | 0.57 µM
O=S1(=O)C=C(Sc2nc3cc(Cl)ccc3o2)c2ccccc21 | < 0.26 µM
CCc1c(C)nc2ncnn2c1NCCc1ccc(Cl)cc1 | 2.17 µM
O=C1CC(Sc2nnnn2-c2ccccc2)C(=O)N1c1cccc(Cl)c1 (stereo not drawn) | 8.53 µM
Cc1cc(N2CCCC2=O)cc(C)c1S(=O)(=O)NCCOc1ccc(C(C)(C)C)cc1 | 1.15 µM
CCOC(=O)c1c(-c2ccccc2)oc2cc(CN(C)C)c(O)c(CN(C)C)c12 | 7.81 µM
CC(=O)Nc1cccc(NC(=O)CSc2ncc(-c3ccc(Cl)cc3)n2Cc2ccco2)c1 | 4.95 µM
O=C(Nc1cccc(Cl)c1Cl)C1CC(=O)N(c2ccc(Br)cc2)C1 (stereo not drawn) | 8.23 µM
Cc1cc(C(=O)NC2CCCc3c2cnn3-c2cccc(C)c2C)n(C)n1 (stereo not drawn) | < 0.26 µM
CC(C)(C)OC(=O)NCCCCCNC(=O)c1nc[nH]c1C(=O)NCc1ccc(CNC(=O)OC(C)(C)C)cc1 | 3.95 µM
COc1cc(OC)c(OC)cc1CNC(=O)c1cccc(S(=O)(=O)N2CCc3ccccc3C2)c1 | 2.39 µM
Cc1nc(-n2[nH]c3c(c2=O)CCCC3)[nH]c(=O)c1Cc1ccccc1 | 4.44 µM
C[C@H](O)C#Cc1ccc2c(c1)O[C@@H](CN(C)Cc1ccc(-c3ccccc3)cc1)[C@H](C)CN([C@@H](C)CO)S2(=O)=O | 10.3 µM
COc1ccc(NS(=O)(=O)c2ccc(N3CCOCC3)c(N)c2)cc1 | 1.08 µM
